From patent publication US20220089602A1, “COMPOUNDS THAT INDUCE FERROPTIC CELL DEATH” (The Board of Trustees of the University of Illinois, priority 2019, published 2022)

Key:
S. aureus = experiment: Antibacterial activity (MIC); assay type: cell-based; conditions: Staphylococcus aureus; gram positive (S. aureus)
[1] = Pharmacokinetic assessment; assay type: in vivo, C57BL/6 mice
Procedure: The protocol was approved by the IACUC at the University of Illinois at Urbana-Champaign (Protocol Number: 14173). In these studies, 10- to 12-week-old female C57BL/6 mice (purchased from Charles River) were used. Ferroptocide was formulated in 100% PEG400. Mice were treated with ferroptocide (40 mg/kg) via i.p. with three mice per time point (15, 30, 45, 60, 120, 240, 480, and 1440 min). At specific time points, mice were sacrificed, and blood was collected, centrifuged; the serum was frozen at −80° C. until analysis. The proteins in a 50 μL aliquot of serum were precipitated by the addition of 50 μL acetonitrile and the sample was centrifuged to remove the proteins. Serum concentrations of ferroptocide were determined by reverse phase HPLC (Shimadzu Corporation, Japan). PK parameters were determined using GraphPad Prism Version 5.00 for Windows.

A549 cells = experiment: Speed of cell death, AV/PI flow cytometry; assay type: cell-based; conditions: each at 10 μM, A549 (K-RAS mutant)
Procedure: (§1) ES-2, HCT 116, Mia PaCa-2, A549, and 4T1 cells (1×10^5 cells/mL) were plated overnight in 12 well plates, prior to addition of compounds. For protection studies, samples were pre-treated with each protecting agent such as 25 μM Q-VD-OPh, 250 μM trolox, 2 μM ferrostatin-1, 5 mM NAC-1 (neutralized pH), or 100 μM deferoxamine (DFO) for two hours or 1 hr (NAC-1) before compound addition. Cells were incubated for the appropriate times and harvested for flow cytometry analysis. Cell pellets were resuspended in binding buffer (10 mM HEPES, pH 7.4, 140 mM NaCl, 2.5 mM CaCl2) containing 2 μg/mL propidium iodide and 5 μL/mL Annexin V-FITC conjugate antibody and analyzed for cell viability after gating for forward and side scattering. Ten thousand events were collected per sample in BD LSR II Flow Cytometer (BD Bioscience) and FCS express V6, De Novo software was used to perform experimental analysis.

ES-2 cells [2] = experiment: Speed of cell death, AV/PI flow cytometry; assay type: cell-based; conditions: 10 μM, ES-2, AV/PI
Procedure: as §1

HCT 116 cells = experiment: Speed of cell death, AV/PI flow cytometry; assay type: cell-based
Procedure: as §1

Mia PaCa-2 cells = experiment: Speed of cell death, AV/PI flow cytometry; assay type: cell-based; conditions: 10 μM, Mia PaCa-2, AV/PI
Procedure: as §1

ES-2 cells [3] = experiment: Confocal microscopy competition with fluorescent analogue P30; assay type: cell-based; conditions: pretreatment at 3× IC50 for 30 min, then P30 (5 μM)
Procedure: ES-2 cells (3×10^5 cell) were attached overnight in […] petri dish plates containing 2 ml of RPMI media. Prior to imaging, cells were stained for 30 min with Mitotracker Red CMXRoss at 100 nM final concentration. Upon media replacement, samples were pre-treated with 3× IC50 of ferroptocide, P27, L1, QQ1 for 30 min followed by treatment with 5 μM P30 for an additional 30 min and a PBS wash. PBS or phenol free media was added to each dish and cells were stained with Hoechst 33342 (1 μg/mL).

red blood cells = experiment: Hemolysis assay; assay type: cell-based, human; conditions: 2 hr treatment with 333 μM
Procedure: Whole human blood in citrate phosphate dextrose was obtained from Bioreclamation LLC, stored at 4° C. and used before expiration date. 100 μL of whole blood was combined with 500 μL saline (0.9% NaCl) and centrifuged for 5 min at 300×g. The supernatant was carefully removed from the erythrocyte pellet and the liquid was discarded. Washed pellet 3× in 500 μL saline. The erythrocyte pellet was resuspended in 800 μL of Red Blood Cell Buffer (10 mM Na2HPO4, 150 mM NaCl, 1 mM MgCl2, pH 7.4). To a 0.5 mL eppendorf tube or a PCR plate was added 1.0 μL of 30× compound in DMSO and 19 μL RBC Buffer. For negative controls, 1.0 μL DMSO was combined with 19 μL RBC buffer. For positive controls, either 20 μL MilliQ H2O or 1.0 μL 30% Triton X-100 were combined with 19 μL RBC Buffer. Tubes or plates were briefly centrifuged. Next, 10 μL of washed erythrocyte suspension was added to each tube, then sealed. After incubation at 37° C. for 2 h, samples were centrifuged for 5 min at 300×g, and 20 μL of supernatant was carefully removed and transferred to wells of a clear flat-bottomed 384-well plate. Absorbance was measured at 540 nm. The data were plotted as compound concentration versus percent hemolysis, and fitted to OriginPro (OriginLab, Northampton, Mass.).

[4] = female, mouse, ip, 40 mg/kg i.p., C57BL/6 mice, serum

For C[C@@H]1CC[C@@]23C[C@H](O)C(=O)[C@@]2(O)[C@]1(C)[C@H](OC(=O)CCl)C[C@@H](C1=CCn2c(=O)n(-c4ccccc4)c(=O)n2C1)[C@@H]3C [Compound P18, ferroptocide], the MIC (S. aureus) was > 64 µg/mL, the AUC [1, 4] was 7040 ng·h/mL and the half-life [1, 4] was 9.96 min. The “pharmacokinetics (in words)” value ([1]; mice) was “poor pharmacokinetics”, the “cell death versus erastin and RSL3” value (A549 cells) was “inducing more quantitative cell death than the other tool compounds” and the “time to 50% cell death” value (ES-2 cells [2]) was 1 h. The “time to 50% cell death” value (HCT 116 cells; 10 μM, HCT 116, AV/PI) was 7 h, the “cell death versus erastin and RSL3” value (HCT 116 cells; each at 10 μM, HCT 116 (K-RAS mutant)) was “inducing more quantitative cell death than the other tool compounds” and the “time to 50% cell death” value (Mia PaCa-2 cells; listed as Ferroptocide) was 2 h. The “time to 50% cell death” value (Mia PaCa-2 cells; listed as ferroptocide) was 1.5 h, the “competition of P30 staining” value (ES-2 cells [3]) was “competed away” and the hemolytic activity (red blood cells; listed as Ferroptocide) was “no hemolytic activity”. For the same compound, the hemolytic activity (red blood cells; listed as ferroptocide) was “Lack of hemolytic activity”.
